Columns and labels:
[1] = system: cerebral ischemia mice (C57BL6/J); experiment: Necrosis after cerebral ischemia, intraventricular administration; type: in vivo, mouse
Protocol: A cerebral ischemic area was artificially developed in wild-type mice (C57BL6/J) using embolic suture. Specifically, nylon suture was inserted from the right external carotid artery into the intracranial internal carotid artery, and the right middle cerebral artery was temporarily occluded. The embolic suture was removed 40 minutes after the formation of the ischemic area, and the blood was reperfused. Four hours after the formation of the ischemic area, 2 μl of MHP1 solution (0.625 μg/2 μl, the solvent was artificial cerebrospinal fluid (aCSF)) or 2 μl of aCSF was administered by injection into the ventricle of the mice with a neurological severe score of 1 or 2. Separately, a group to which edaravone, which is a known brain-protecting agent, was administered was also produced (aCSF intraventricular administration+3 mg/kg of edaravone i.p., administered every 12 hours). The brain was removed 72 hours after the formation of the ischemic area, and a brain slice including left and right brain portions in positions of 1.4, 0.7, and 0 mm in the front and rear of the bregma was produced. The slice was stained with cresyl violet. The area of the […] was regarded as the cerebral infarct area (necrosis site), and the ratio of cerebral infarct area was determined by the following formula. […] Ratio of cerebral infarct area=([normal side brain area]−([cerebral infarct side total area]−[cerebral infarct area])/normal side brain area)×100
Furthermore, the ratio of F4/80-positive cells (activated macrophage/microglia) in the cerebral infarction hemisphere in a position of 0.7 mm from the bregma (/middle cerebral artery region), and the number of the cells were measured.

[2] = system: neuron-glia mixed culture; experiment: Neuronal cell death by LPS in neuron-glia mixed culture system (MAP2 staining); type: cell-based, mouse; conditions: B group; MHP1 50 μg/ml pretreatment, LPS 10 μg/ml, 5 days; FIG. 6
Protocol: (§1) Neuronal tissue (a mixture of neurons and glial cells) was removed from a mouse fetus 21 days after fertilization (21st fetal day), and cultured in Neurobasal medium (+B-27, +5% HS) for 9 days. Then, the cells were divided into 3 groups (A to C groups), and subjected to the following treatments.
The cells were cultured for 24 hours after the medium was changed to a medium (Neurobasal A/N2 supplement) containing MHP1 (final concentration: 50 μg/ml). Then, LPS (final concentration: 10 μg/ml) was added to the medium, and the cells were further cultured for 5 days. After culture, immunostaining was performed according to a general method using an antibody (M4403, produced by Sigma-Aldrich) against MAP2, which was a neuronal cell marker, as a primary antibody (primary antibody: 1/1000 dilution, and second antibody (A 11001, produced by Invitrogen): 1/1000 dilution). The staining images were observed, and the ratio of the area of the stained region (i.e., the region occupied by the survival neurons) to the culture dish area was calculated.

[3] = system: THP1 cells; experiment: Proinflammatory cytokine secretion inhibition, human macrophage cells; type: cell-based; conditions: MHP6 10-100 μg/ml or MHP1 100 μg/ml, LPS 2 ng/ml, 24 hours, FIG. 14
Protocol: THP1 cells (human-derived macrophage cell line) were cultured in a DMEM medium (+4% FBS) containing MHP6 (human-derived; final concentration: 10, 30, 50, or 100 μg/ml) or MHP1 (mouse-derived; final concentration: 100 μg/ml), and LPS (final concentration: 2 ng/ml) for 24 hours by a standard method. After culture, the concentration of IL-6 in the medium was measured by the ELISA method.

[4] = system: neuron-glia mixed culture; experiment: TNFα secretion by LPS in neuron-glia mixed culture system; type: cell-based, mouse
Protocol: as §1
The cells were cultured for 24 hours after the medium was changed to a medium (Neurobasal A/N2 supplement) containing MHP1 (final concentration: 1, 10, 30, or 50 μg/ml). Then, LPS (final concentration: 10 μg/ml) was added to the medium, and the cells were further cultured for 24 hours. After culture, the concentration of TNFα in the medium was measured by the ELISA method.
The cells were cultured for 24 hours after the medium was changed to a medium (Neurobasal A/N2 supplement) containing MHP1 (final concentration: 30 or 50 μg/ml) and LPS (final concentration: 10 μg/ml). After culture, the concentration of TNFα in the medium was measured by the ELISA method.

[5] = system: cerebral infarction model mice; experiment: Necrosis inhibition by intravenous administration in cerebral infarction models; type: in vivo, mouse; conditions: 300 μG i.v. 4 hours after infarction, then 336 μg s.c. over 21 hours
Protocol: A cerebral ischemic area was artificially developed in wild-type mice (C57BL6/J) using embolic suture. Specifically, nylon suture was inserted from the right external carotid artery into the intracranial internal carotid artery, and the right middle cerebral artery was temporarily occluded. The embolic suture was removed 40 minutes after the formation of the ischemic area, and the blood was reperfused. Four hours after the formation of the ischemic area, 2 μl of MHP1 solution (0.625 μg/2 μl, the solvent was artificial cerebrospinal fluid (aCSF)) or 2 μl of aCSF was administered by injection into the ventricle of the mice with a neurological severe score of 1 or 2. […] The area of the cresyl violet staining site was regarded as the cerebral infarct area (necrosis site), and the ratio of cerebral infarct area was determined by the following formula. […]
Cerebral infarction models were produced in the same manner as in Example 10. […] Twenty-four hours and forty-eight hours after the production of the cerebral infarction models, neurological severity scores were measured. Furthermore, the mice were sacrificed 48 hours after the production of the cerebral infarction models, and the ratio of cerebral infarct area was determined in the same manner as in Example 10.

[6] = system: NFκB (p65); experiment: NFκB (p65) activation (TransAM NFkB p65 Kit); type: cell-based, mouse; conditions: RAW264.7 cells; MHP1 100 μg/ml, 10 minutes; FIG. 12C
Protocol: It has recently been reported that the administration of RANKL protein to mice induces the activation of osteoclasts. Accordingly, the influence of the RANKL peptide on osteoclasts was examined. The specific examination procedures were as follows. MHP1 (final concentration: 100 μg/ml) or RANKL protein (final concentration: 10 ng/ml) was added to a medium (DMEM medium (+4% FBS)) in which RAW264.7 cells were cultured, and the cells were collected after 10 minutes and 3 days.
For the samples collected after 10 minutes, nuclear proteins of the cells were extracted using the Nuclear Extract Kit (Active Motif), and the degree of NFκB (p65) activation was measured by the TransAM NFkB p65 Kit (Active Motif). On the other hand, for the samples collected after 3 days, the mRNA expression levels of NFATc1 and ACP5 were analyzed by real-time RT-PCR.

Sequence: LMVYVVKTSIKIPSSHNLMKGGSTKNWSGN (listed as Mus musculus) [MHP1]
- necrosis occurring after cerebral ischemia (ratio of cerebral infarct area) ([1]; 0.625 μg/2 μl into the ventricle 4 hours after ischemia, brain at 72 hours, FIG. 15): could be inhibited
- expression of activated macrophage/microglia (F4/80-positive cells) ([1]; cerebral infarction hemisphere, 0.7 mm from the bregma, FIG. 16): suppressed
- degree of inhibition of necrosis compared with edaravone administration ([1]; one MHP1 administration vs edaravone 3 mg/kg i.p. every 12 hours, FIG. 15): higher than edaravone administration
- neuronal cell death by LPS [2]: suppressed
- proinflammatory cytokine (IL-6) secretion-inhibiting activity on human-derived macrophage cells [3]: exhibited proinflammatory cytokine secretion-inhibiting activity
- increase in the amount of TNFα secretion by LPS ([4]; pretreatment (A group), MHP1 1, 10, 30 or 50 μg/ml 24 hours before LPS 10 μg/ml, FIG. 5): suppressed
- increase in the amount of TNFα secretion by LPS ([4]; simultaneous treatment (C group), MHP1 30 or 50 μg/ml with LPS 10 μg/ml, 24 hours, FIG. 7): suppressed
- symptoms of cerebral infarction (neurological severity scores) ([5]; 24 and 48 hours, FIG. 23): could be relieved
- necrosis occurring after cerebral ischemia (ratio of cerebral infarct area) ([5]; 48 hours, FIG. 22): could be suppressed
- NFκB (p65) activation [6]: slightly activated
